The values that follow come from US5849695A, “Parathyroid hormone analogues useful for treatment of osteoporosis and disorders of calcium meatabolism in mammals” (The Regents of the University of California, priority 1993, dated 1998).

Series [1] addresses T1, PTH receptor (Canis lupus familiaris, UniProt Q9TU31).
T1 construct: canine renal plasma membranes; from tissue; host or cells: canine kidney (renal plasma membranes)
T1 sequence (Q9TU31 29-595): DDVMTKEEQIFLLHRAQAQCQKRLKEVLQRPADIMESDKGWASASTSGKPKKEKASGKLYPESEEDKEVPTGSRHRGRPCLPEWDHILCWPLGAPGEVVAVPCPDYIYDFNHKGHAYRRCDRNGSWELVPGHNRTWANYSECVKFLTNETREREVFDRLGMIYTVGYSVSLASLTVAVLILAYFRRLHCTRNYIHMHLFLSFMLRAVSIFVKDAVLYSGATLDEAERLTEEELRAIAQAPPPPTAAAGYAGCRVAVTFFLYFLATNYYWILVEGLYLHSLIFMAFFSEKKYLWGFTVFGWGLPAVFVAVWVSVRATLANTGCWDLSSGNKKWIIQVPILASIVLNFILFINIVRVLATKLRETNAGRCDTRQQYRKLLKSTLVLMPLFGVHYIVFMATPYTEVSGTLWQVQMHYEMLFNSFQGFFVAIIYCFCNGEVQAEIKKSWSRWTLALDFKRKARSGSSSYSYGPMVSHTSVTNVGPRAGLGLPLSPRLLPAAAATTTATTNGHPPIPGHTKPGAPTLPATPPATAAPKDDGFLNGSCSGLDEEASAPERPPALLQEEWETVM
The format is biochemical, canine. Particulars: for RENAL MEMBRANES Canine Activity (AC*): maximally effective dose; for antagonism of PTH-stimulated adenylate cyclase: canine renal plasma membranes and UMR 106-H5 cells (FIG. 8). The procedure: (§1) Receptor binding assays were carried out in canine renal plasma membranes and in UMR 106-H5 rat osteosarcoma cells as previously described in detail (Ref. 14,32), using ^125 I-labeled PTH(1-34)amide as the radioligand. Binding potency (IC50) was quantified as the concentration of unlabeled peptide required for half-maximal displacement of the radioligand. […] Adenylate cyclase activity was assessed in canine renal membranes by the conversion of [α-32p ] ATP to [^32 P] cyclic AMP, essentially as described, except for the addition of 100 micromolar GTP (Ref. 33,34). Adenylate cyclase activity in UMR 106-H5 cells was assessed essentially as described (Ref. 35). In brief, cells were incubated with [3H]adenine 1 micro Ci/ml of serum-free MEM for two hours at 37° C. to label the endogenous ATP pool. Cells were then exposed to 0.4 mM IBMX for 10 min, followed by the appropriate peptide for an additional 10 min at ambient temperature. The cells are then scraped in 20% TCA, and [3H]cyclic AMP is isolated by the column procedure of Salomon et al. (Ref. 36). Potency in the adenylate cyclase assays (Ka) is the concentration of peptide producing half-maximal enzyme activation.

Series [2] deals with T2, PTH receptor (Rattus norvegicus, UniProt P25961).
T2 construct: endogenous in cells; host or cells: UMR 106-H5 rat osteosarcoma cells
T2 sequence (P25961 27-591): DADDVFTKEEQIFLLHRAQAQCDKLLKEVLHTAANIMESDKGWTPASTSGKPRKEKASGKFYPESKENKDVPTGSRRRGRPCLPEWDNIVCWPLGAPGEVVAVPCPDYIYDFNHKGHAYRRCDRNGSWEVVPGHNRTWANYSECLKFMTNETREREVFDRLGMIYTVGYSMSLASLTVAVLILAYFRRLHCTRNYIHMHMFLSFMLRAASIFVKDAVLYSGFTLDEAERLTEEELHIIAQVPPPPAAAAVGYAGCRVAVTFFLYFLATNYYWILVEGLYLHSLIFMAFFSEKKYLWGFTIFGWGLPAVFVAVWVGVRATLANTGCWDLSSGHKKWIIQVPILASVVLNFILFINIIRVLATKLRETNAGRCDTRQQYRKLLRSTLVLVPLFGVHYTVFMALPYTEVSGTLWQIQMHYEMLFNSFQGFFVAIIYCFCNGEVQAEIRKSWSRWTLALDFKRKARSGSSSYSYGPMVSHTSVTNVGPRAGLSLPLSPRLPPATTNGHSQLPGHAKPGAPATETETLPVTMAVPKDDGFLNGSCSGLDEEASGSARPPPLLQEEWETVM
In kind it is binding. The procedure:
as §1

The target of series [3] is T1, PTH receptor. The format is binding, canine. The method, then:
as §1

Series [4] addresses T2, PTH receptor. The format is cell-based. The settings on record: for UMR106-H5 CELLS Rat Bone Activity (AC*): maximally effective dose. The procedure:
as §1, with “Assays were conducted using […] cells. These assays were performed as described in Cohen et al. (1991), J. Biological Chem., 266(3), 1997 and in the Experimental section, e.g. Example 11. Receptor” for “Receptor”

Series [5] deals with T3, PTH receptor (Homo sapiens, UniProt Q03431).
T3 sequence (Q03431 27-593): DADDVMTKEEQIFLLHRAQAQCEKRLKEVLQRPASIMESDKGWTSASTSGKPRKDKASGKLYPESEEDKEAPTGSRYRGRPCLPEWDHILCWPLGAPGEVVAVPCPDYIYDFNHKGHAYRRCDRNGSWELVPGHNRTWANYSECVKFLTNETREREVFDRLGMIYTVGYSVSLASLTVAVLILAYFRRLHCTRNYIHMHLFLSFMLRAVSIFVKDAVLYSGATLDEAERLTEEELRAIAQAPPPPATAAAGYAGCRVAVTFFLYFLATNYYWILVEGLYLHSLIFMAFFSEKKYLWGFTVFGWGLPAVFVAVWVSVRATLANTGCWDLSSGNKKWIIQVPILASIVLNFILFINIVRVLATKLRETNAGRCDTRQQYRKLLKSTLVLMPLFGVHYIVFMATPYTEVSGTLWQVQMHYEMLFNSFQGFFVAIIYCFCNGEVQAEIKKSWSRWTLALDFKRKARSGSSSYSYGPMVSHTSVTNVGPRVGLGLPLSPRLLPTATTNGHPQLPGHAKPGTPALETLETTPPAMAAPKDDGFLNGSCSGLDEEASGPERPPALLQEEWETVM
The format is cell-based. Also on record: In intact rat (UMR-106) and human (SaOS-2) bone cell lines; endogenous in cells; host or cells: SaOS-2 human bone (osteosarcoma) cells. The text has this:
The renal membrane assay values listed reflect the effect of the polypeptide analogue with kidney tissue receptors. The UMR-106-H5 assay values reflect the effect of the peptide analogue with rat bone tissue receptors. The Sa05-2 assay values reflect the effect of the peptides for human bone tissue receptors.

Series [6] can be described thus: Circular dichroism: alpha-helical content. Particulars: for % HELIX TFE (30%) / % HELIX TFE (0%): Table 1, CD; for % HELIX TFE (30%): 30% trifluoroethanol; for % HELIX TFE (0%): absence of trifluoroethanol. In kind it is physicochemical. The procedure: Far ultraviolet circular dichroism (CD) spectra were obtained in phosphate buffer (ph 7.0) at 25±1° C. in a 1.0 mm cell on an Instruments SA Jobin Yvon circular dichrograph calibrated with (+) 10-camphorsulfonic acid and epiandosterone. Peptides were analyzed at concentrations ranging from 0.1-0.3 mg/ml. The mean molar ellipticity per residue at 222 nm ([⊖]222 nm-, deg cm^2 /dmol) was used to derive estimates of alpha-helicity according to the method of Taylor and Kaiser (ref. 29).

The mark [7] stands for this setting: Table 1, relative to bPTH(1-34) = 100%.
[8] abbreviates: Table 1, half-maximal enzyme activation, relative to bPTH(1-34) = 100%.

Read-outs that look alike come from different tables or passages of the source.

As for `CC[C@H](C)[C@H](NC(=O)[C@H](CCC(=O)O)NC(=O)[C@H](CO)NC(=O)[C@@H](NC(=O)[C@H](C)N)C(C)C)C(=O)N[C@@H](CCC(N)=O)C(=O)N[C@@H](Cc1ccccc1)C(=O)N[C@@H](CCSC)C(=O)N[C@@H](Cc1c[nH]cn1)C(=O)N[C@@H](CC(N)=O)C(=O)N[C@@H](CC(C)C)C(=O)NCC(=O)N[C@@H](CCCCN)C(=O)N[C@@H](Cc1c[nH]cn1)C(=O)N[C@@H](CC(C)C)C(=O)N[C@@H](CO)C(=O)N[C@@H](CO)C(=O)N[C@@H](CCSC)C(=O)N[C@@H](CCC(=O)O)C(=O)N[C@@H](CCCNC(=N)N)C(=O)N[C@H](C(=O)N[C@@H](CCC(=O)O)C(=O)N[C@@H](Cc1c[nH]c2ccccc12)C(=O)N[C@@H](CC(C)C)C(=O)N[C@@H](CCCNC(=N)N)C(=O)N[C@@H](CCCCN)C(=O)N[C@@H](CCCCN)C(=O)N[C@@H](CC(C)C)C(=O)N[C@@H](CCC(N)=O)C(=O)N[C@@H](CC(=O)O)C(=O)N[C@H](C(=O)N[C@@H](Cc1c[nH]cn1)C(=O)N[C@@H](CC(N)=O)C(=O)N[C@@H](Cc1ccccc1)C(=O)O)C(C)C)C(C)C` [bPTH (1-34), bPTH(1-34), reference compound], the “RENAL MEMBRANES Canine Potency (AC)” value at PTH receptor [1] is recorded as 100%. Besides, the “RENAL MEMBRANES Canine Activity (AC*)” value at PTH receptor [1] (setting [7]) is recorded as 100%. Further, the “UMR106-H5 CELLS Rat Bone Potency (B)” value on PTH receptor [2] is given as 100%. In addition, the “RENAL MEMBRANES Canine Potency (B)” value on PTH receptor [3] is 100%. For the same compound, at PTH receptor [4], the “UMR106-H5 CELLS Rat Bone Potency (AC)” value was 100%. For the same compound, the “UMR106-H5 CELLS Rat Bone Activity (AC*)” value on PTH receptor [4] (setting [7]) came out at 100%.
As to [Phe^3 ]bPTH(1-34), the “antagonism of PTH-stimulated adenylate cyclase” value at PTH receptor [1] is given as “partial PTH antagonists”.
As to [Ala^6 ]bPTH(1-34), the “potency in human bone cells versus renal membranes” value at PTH receptor [5] (human bone cells and renal membranes) is “equipotent”.
For the compound [Tyr^3 ]bPTH(1-34), the “RENAL MEMBRANES Canine Potency (AC)” value on PTH receptor [1] (setting [8]) is reported as 1.2%. The “RENAL MEMBRANES Canine Activity (AC*)” value at PTH receptor [1] (setting [7]) is listed as 28%. Also, the “agonist behaviour in the adenylate cyclase assay” value on PTH receptor [1] (both the bone and kidney systems) was “partial agonist activity”. Also, in series [6], the “% HELIX TFE (30%)” value is 99% and the “% HELIX TFE (0%)” value is 34%. Moreover, on PTH receptor [2] (setting [7]), the “UMR106-H5 CELLS Rat Bone Potency (B)” value is 0.9%. Further, the “RENAL MEMBRANES Canine Potency (B)” value on PTH receptor [3] (setting [7]) came out at 2%. In addition, at PTH receptor [4] (setting [7]), the “UMR106-H5 CELLS Rat Bone Activity (AC*)” value was found to be 100% and the “UMR106-H5 CELLS Rat Bone Potency (AC)” value was 2.5%. For the same compound, the “activity in adenylate cyclase compared with renal adenylate cyclase” value on PTH receptor [4] (UMR-106-H5 cells) is reported as “increased activity”.
On to [His^3 ]bPTH(1-34), for which the “RENAL MEMBRANES Canine Potency (AC)” value on PTH receptor [1] (setting [8]) stood at 2.5%. Moreover, the “RENAL MEMBRANES Canine Activity (AC*)” value on PTH receptor [1] (setting [7]) is on record as 100%. Also, in series [6], the “% HELIX TFE (30%)” value amounted to 84% and the “% HELIX TFE (0%)” value came out at 35%. On PTH receptor [2] (setting [7]), the “UMR106-H5 CELLS Rat Bone Potency (B)” value was found to be 9%. Further, on PTH receptor [3] (setting [7]), the “RENAL MEMBRANES Canine Potency (B)” value is given as 55%. Besides, at PTH receptor [4] (setting [7]), the “UMR106-H5 CELLS Rat Bone Activity (AC*)” value stood at 100% and the “UMR106-H5 CELLS Rat Bone Potency (AC)” value stood at 75%. Besides, on PTH receptor [4] (UMR-106-H5 cells), the “potency for adenylate cyclase activation compared with renal adenylate cyclase” value is “increased potency”.
For the compound [Lys^3 ]bPTH(1-34), the “RENAL MEMBRANES Canine Potency (AC)” value at PTH receptor [1] (setting [8]) was 1.5%. Further, the “RENAL MEMBRANES Canine Activity (AC*)” value at PTH receptor [1] (setting [7]) came to 78%. Besides, in series [6], the “% HELIX TFE (30%)” value came to 81% and the “% HELIX TFE (0%)” value worked out at 29%. For the same compound, the “UMR106-H5 CELLS Rat Bone Potency (B)” value on PTH receptor [2] (setting [7]) came out at 3.5%. The “RENAL MEMBRANES Canine Potency (B)” value on PTH receptor [3] (setting [7]) is listed as 14%. Further, on PTH receptor [5] (setting [7]), the “SAOS2 CELLS Human Bone Activity (AC)” value was 100% and the “SAOS2 CELLS Human Bone Potency (AC)” value stood at 20%. Moreover, on PTH receptor [4] (setting [7]), the “UMR106-H5 CELLS Rat Bone Activity (AC*)” value was found to be 95% and the “UMR106-H5 CELLS Rat Bone Potency (AC)” value was determined as 14%. Also, at PTH receptor [4] (both bone cell assays), the “bioactivity in bone cell assays versus kidney” value is recorded as “enhanced bioactivity”.
In the case of [Phe^6 ]bPTH(1-34), the “antagonism of PTH-stimulated adenylate cyclase” value on PTH receptor [1] is “inhibition”; on PTH receptor [1] (listed as [Phe^6 ]PTH(1-34)) it was “partial PTH antagonists”. In addition, the results for the “binding activity retained, of the activity of bPTH(1-34)” value on PTH receptor [2] (osteosarcoma cells) and at PTH receptor [3] (renal membranes) were 4% and 1%, respectively.
Turning to [Glu^3 ]bPTH(1-34), the calculated alpha-helical content in series [6] (aqueous solvent conditions) was 19%. The “retention of binding potency / receptor binding activity” value at PTH receptor [3] (relative to bPTH(1-34), similar in the kidney and bone systems) was “less than 0.1%”.
